Assay results from patent US20260216144A1, “TARGETING MB2 OF THE MYC ONCOGENE AND ITS INTERACTION WITH TRRAP IN CANCER” (priority 2019, published 2026).

Molecular target: MYC:TRRAP interaction (Homo sapiens, UniProt P01106+Q9Y4A5)
Assay: MYC:TRRAP in-cell luminescence complementation assay (NanoBiT; SmB-MYC 1-190 and TRRAP 2033-2283-LgB in HeLa cells)
Format: cell-based
Details: not given
Experimental: HeLa cells plated on Greiner 96-well TC-rated white plates with clear bottoms were used for the following measurements. Reverse transfections were carried out using LipoD293™ before cells were plated. A bluescript KS' plasmid (Addgene) was used as carrier DNA for transfections, and a pcDNA3.1 EGFP plasmid (ThermoFisher) was used as a fluorescence reporter. White light-reflecting film (USA Scientific) was used to cover the bottom of the plates for luminescence measurements. Black light-absorbing film was used to cover the top of the plates for fluorescence measurements. All measurements were taken on a SpectraMax i3 instrument (Molecular Devices).
Transfections were carried out with increasing DNA amounts (1-100 ng per well) of a CMV-driven LgB plasmid and SmB in excess or vice-versa. Background luminesce for the usable range and the amount of DNA needed for vast excess of LgB or SmB were noted. Next, complementation with vast excess either LgB or SmB was used to determine the expression of each of the indicated MYC and TRRAP constructs for a range of DNA amounts per well: 10-100 ng. An optimal ratio of DNA to equalize the expression of each MYC and TRRAP pair was calculated. Then, signal-to-noise ratios were calculated for the indicated MYC and TRRAP pairs, and the pair with the highest ratio was chosen. Finally, the chosen pair was used to determine the optimal DNA transfection mixture. It was determined to be 6.7 ng of a plasmid with a MYC construct, 60 ng of a plasmid with a TRRAP construct and 33.3 ng of the pcDNA 3.1 EGFP plasmid, for each well in a 96-well plate. Unless otherwise indicated, these were the ratios of DNA transfected for this type of assay.
HeLa cells were transfected as above using LipoD293™ with a mixture of SmB-MYC 1-190, TRRAP 2033-2283-LgB, and EGFP in CMV-driven plasmids at the same optimized ratio described above. Two days post-transfection, the media in each well was replaced with fresh media containing each compound from the NCI's sets at 25 μM. Cells were incubated for 2 h with each compound, and luminescence and fluorescence measurements were recorded for each well. Changes in luminescence were normalized to fluorescence. The following pre-plated compound sets were obtained from the NCI/DTP chemical repository and used for this screen:
These chemical sets were used to discover novel small-molecule inhibitors of the MYC:TRRAP complex. SmB-MYC 1-190, TRRAP 2033-2283-LgB, and EGFP were transfected into HeLa cells. Two days post-transfection, compounds were added to the media at 25 μM and cells were incubated for 2h. Luminescence and fluorescence were recorded for each well containing one of the compounds. Changes in luminescence measurements were normalized to fluorescence measurements.
Afterwards, only molecules that reduced luminescence levels to <50% RLU were considered. This set of 46 compounds were incubated at 10 μM with vector-expressing cells. Luminescence complementation was measured and repeated in triplicate measurements. In addition, HeLa cells expressing LgB and SmB alone were incubated with the same compounds to rule out potentially artificial results due to inhibition of luciferase or its complementation. Molecules that induces any significant reduction in luminescence (<0.6) during this control assay were not considered further. Of 2947 molecules, 17 were chosen for further testing and ordered from the NCI/DTP Open Chemical Repository. FIG. 16 describes these chosen compounds.
Using the luminescence assay above as a readout for the MYC:TRRAP interaction, we used a robotic liquid handler to evaluate 2987 additional compounds (25 μM). All primary hits were counter-screened for any activity against the luciferase enzyme itself and for any effects on the expression of the fusion proteins. We set a threshold of 50% inhibition to consider compounds further. Only 17 out of 2987 passed all these criteria (0.6%). […]

Sequence of MYC:TRRAP interaction (P01106 16-205): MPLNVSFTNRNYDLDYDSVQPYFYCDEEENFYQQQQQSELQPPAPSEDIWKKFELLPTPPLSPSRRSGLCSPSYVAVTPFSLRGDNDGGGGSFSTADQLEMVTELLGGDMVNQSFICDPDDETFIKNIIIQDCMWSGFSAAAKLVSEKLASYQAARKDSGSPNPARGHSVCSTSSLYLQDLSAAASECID
Sequence of MYC:TRRAP interaction (Q9Y4A5 2051-2301): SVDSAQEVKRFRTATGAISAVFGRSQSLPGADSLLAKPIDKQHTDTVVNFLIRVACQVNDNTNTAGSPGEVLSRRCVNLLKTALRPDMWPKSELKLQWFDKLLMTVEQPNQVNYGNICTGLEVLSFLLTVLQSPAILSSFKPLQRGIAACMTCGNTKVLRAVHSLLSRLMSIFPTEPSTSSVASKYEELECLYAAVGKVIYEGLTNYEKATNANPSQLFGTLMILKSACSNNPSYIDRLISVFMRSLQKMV

| Compound | % Inhibition 10 uM [%] |
| --- | --- |
| CC[C@H](C)[C@@H]1/N=C(\O)[C@@H](NC(=O)c2c3nc4c(C(=O)N[C@@H]5/C(O)=N/[C@@H](C(C)C)C(=O)N6CCC[C@H]6C(=O)N(C)CC(=O)N(C)[C@@H](C(C)C)C(=O)O[C@@H]5C)ccc(C)c4oc-3c(C)c(=O)c2N)[C@@H](C)OC(=O)[C@H](C(C)C)N(C)C(=O)CN(C)C(=O)[C@@H]2CCCN2C1=O [Compound 20, 2-amino-1-N-[(3S,6S,7R,10S, 16S)-3-[(2S)-butan-2-yl]-7,11,14-trimethyl-2,5,9,12,15-pentaoxo-10-propan-2-yl-8-oxa-1,4,11,14-tetrazabicyclo [14.3.0]nonadecan-6-yl]-4,6-dimethyl-3-oxo-9-N-[(3S,6S,7R, 10S,16S)-7,11,14-trimethyl-2,5,9,12,15-pentaoxo-3,10-di(propan-2-yl)-8-oxa-1,4,11,14-tetrazabicyclo [14.3.0]nonadecan-6-yl]phenoxazine-1,9-dicarboxamide] | 41.4 |

Same assay, conditions: Table 1; 46 primary hits at 10 uM; HeLa cells; triplicate measurements

| Compound | % Inhibition 10 uM [%] |
| --- | --- |
| Nc1ccc(N=Nc2ccccc2Cl)c(N)n1 [Compound 1, 3-[(2-chlorophenyl)diazenyl] pyridine-2,6-diamine] | 14.38 |
| COC(=O)c1cc(-c2c[nH]cc2C(=O)OCc2ccccc2)cn1S(=O)(=O)c1ccc(C)cc1 [Compound 8, methyl 1-(4-methylphenyl) sulfonyl-4-(4-phenylmethoxycar-bonyl-1H-pyrrol-3-yl)pyrrole-2-carboxylate] | 33.32 |
| C/N=c1\sc2c(n1C)C(=O)c1ccccc1C2=O [Compound 13, 3-methyl-2-methyliminobenzo [f][1,3] benzothiazole-4,9-dione] | 68.66 |
| COC1=C(N)C(=O)c2nc(-c3nc(C(=O)O)c(C)c(-c4ccc(OC)c(OC)c4O)c3N)ccc2C1=O [Compound 14, 5-amino-6-(7-amino-6-methoxy-5,8-dioxoquinolin-2-yl)-4-(2-hydroxy-3,4-dimethoxyphenyl)-3-methylpyridine-2-carboxylic acid] | 40.78 |
| CC(=O)OC(C)C1C2=C(C(=O)C[C@]1(C)O)C(=O)c1c(ccc(-c3ccc4c(c3O)C(=O)C3=C(C4=O)C(C(C)OC(C)=O)[C@@](C)(O)CC3=O)c1O)C2=O (stereo partly drawn) [Compound 17, 1-[(2S)-6-[(6S)-5-(1-acetyloxyethyl)-1,6-dihydroxy-6-methyl-8,9,10-trioxo-5,7-dihydroanthracen-2-yl]-2,5-dihydroxy-2-methyl-4,9,10-trioxo-1,3-dihydroanthracen-1-yl]ethyl acetate] | 46.81 |
| Cc1ccc2c(c1)C(=C(C#N)C#N)CCN2 [Compound 18, 2-(6-methyl-2,3-dihydro-1H-quinolin-4-ylidene)propanedi-nitrile] | 57.21 |
| N#C/C(S)=N/c1ccc(F)cc1 [Compound 19, 1-cyano-N-(4-fluorophenyl) methanethioamide] | 92.01 |
| COc1c2c(c(CC=C(C)C)c3oc(=O)c(-c4ccc(O)cc4)c(O)c13)OC(C)(C)C=C2 [Compound 24, 6-hydroxy-7-(4-hydroxyphenyl)-5-methoxy-2,2-dimethyl-10-(3-methylbut-2-enyl)pyrano[3,2-g]chromen-8-one] | 41.01 |

More lines, now with the values ahead:

| % Inhibition 10 uM [%] | Compound |
| --- | --- |
| 96.48 | CN(C)c1ccc(C=C2C=C(c3ccc4c(c3)CCCC4)OC2=O)cc1 (stereo in doubt) [Compound 46, (3Z)-3-[[4-(dimethylamino)phenyl]methylidene]-5-(5,6,7,8-tetrahydro-naphthalen-2-yl)furan-2-one] |
| 11.16 | Cc1cc(O)c(C(C)C)cc1C1(c2cc(C(C)C)c(O)cc2C)OC(=O)c2ccccc21 [Compound 2, 3,3-bis(4-hydroxy-2-methyl-5-propan-2-ylphenyl)-2-benzofuran-1-one] |
| 22.41 | Nc1ccc(/N=N/c2ccccc2)c2ccccc12 [Compound 3, 4-phenyldiazenylnaph-thalen-1-amine] |
| 30.35 | N=c1ccc(/N=N/c2ccc(O)cc2)c(N)[nH]1 [Compound 4, 4-[(2,6-diaminopyridin-3-yl)diazenyl]phenol] |
| 37.24 | Cc1ccc(NC(=O)c2cc3ccccc3c(/N=N/c3ccccc3O)c2O)c(C)c1 [Compound 5, N-(2,4-dimethylphenyl)-3-hydroxy-4-[(2-hydroxyphenyl)diazenyl] naphthalene-2-carboxamide] |
| 33.66 | COc1ccc(OC)c(-c2cc(=O)c3c(OC)c(OC)c(OC)c(OC)c3o2)c1 [Compound 6, 2-(2,5-dimethoxyphenyl)-5,6,7,8-tetramethoxy-chromen-4-one] |
| 16.02 | COC(=O)c1c[nH]c2c1-c1cc(C(=O)OCc3ccccc3)n(S(=O)(=O)c3ccc(C)cc3)c1C(=O)C2=O [Compound 7, 2-O-benzyl 8-O-methyl 3-(4-methylphenyl) sulfonyl-4,5-dioxo-6H-pyrrolo[3,2-e]indole-2,8-dicarboxylate] |
| 48.59 | Cc1ccc(Cl)cc1NC(=O)c1cc2ccccc2cc1O [Compound 9, N-(5-chloro-2-methylphenyl)-3-hydroxy-naphthalene-2-carboxamide] |
| 58.86 | Cc1cc(N(C)C)ccc1/N=N/c1ccc2ncccc2c1 [Compound 12, N,N,3-trimethyl-4-(quinolin-6-yldiazenyl)aniline] |
| 57.02 | CCN(CC)Cc1cc(/N=N/c2c(O)ccc3c(/N=N/c4ccc(O)c(CN(CC)CC)c4)c(O)ccc23)ccc1O.Cl [Compound 15, 1,5-bis[[3-(diethyl-aminomethyl)-4-hydroxyphenyl]diazenyl] naphthalene-2,6-diol; hydrochloride] |
| 62.4 | Cc1nc(/N=N/c2ccccc2)[nH]c1/N=N/c1ccccc1 [Compound 16, (5-methyl-2-phenyldiazenyl-1H-imidazol-4-yl)-phenyldiazene] |
| 39.88 | COC(=O)c1cc2c(n1S(=O)(=O)c1ccc(C)cc1)C(=O)C(=O)c1[nH]cc(C(=O)OCc3ccccc3)c1-2 [Compound 21, 8-O-benzyl 2-O-methyl 3-(4-methylphenyl) sulfonyl-4,5-dioxo-6H-pyrrolo[3,2-e]indole-2,8-dicarboxylate] |
| 52.48 | COc1cc(O)c2c(c1)C(=O)c1cc3c(c(O)c1C2=O)C(OC1OC(C)C(O)C(O)C1OC)C(OC)C(C)(O)C3=O (stereo not drawn) [Compound 22, 4-(4,5-dihydroxy-3-methoxy-6-methyloxan-2-yl)oxy-2,5,7-trihydroxy-3,9-dimethoxy-2-methyl-3,4-dihydrotetracene-1,6,11-trione] |

Same assay, conditions: Table 1; 46 primary hits at 10 uM; HeLa cells; triplicate measurements; 10 µM

| Compound | % Inhibition 10 uM [%] |
| --- | --- |
| N=C1C=C(N)C(=O)c2nc(O)ccc21 [Compound 11, 7-amino-5-imino-1H-quinoline-2,8-dione] | 46.89 |
| COC(=O)c1nc(-c2ccc3c(n2)C(=O)C(N)=C(OC)C3=O)c(N)c(-c2ccc(OC)c(OC)c2O)c1C [Compound 23, methyl 5-amino-6-(7-amino-6-methoxy-5,8-dioxoquinolin-2-yl)-4-(2-hydroxy-3,4-dimethoxyphenyl)-3-methylpyridine-2-carboxylate] | 50.17 |

Same assay, conditions: Table 1; 46 primary hits at 10 uM; HeLa cells; triplicate measurements; listed as 29, 10 µM

| Compound | % Inhibition 10 uM [%] |
| --- | --- |
| COC(=O)c1nc(-c2ccc3c(n2)C(=O)C(N)=C(OC)C3=O)c(N)c(-c2ccc(OC)c(OC)c2O)c1C [Compound 23, methyl 5-amino-6-(7-amino-6-methoxy-5,8-dioxoquinolin-2-yl)-4-(2-hydroxy-3,4-dimethoxyphenyl)-3-methylpyridine-2-carboxylate] | 60.1 |

Same assay, conditions: Table 1; 46 primary hits at 10 uM; HeLa cells; triplicate measurements; listed as 43, 10 µM

| % Inhibition 10 uM [%] | Compound |
| --- | --- |
| 57.34 | N=C1C=C(N)C(=O)c2nc(O)ccc21 [Compound 11, 7-amino-5-imino-1H-quinoline-2,8-dione] |

Same assay, conditions: Table 2; compounds with >80% similarity to compound 10 (NSC657456); 10 uM

| % Inhibition 10 uM [%] | Compound |
| --- | --- |
| 48.26 | N#CC(=C/N=C(S)/N=N/c1c(O)[nH]c2ccccc12)c1nc2ccccc2s1 (stereo in doubt) [Compound 1030, 1-[(E)-2-(1,3-benzothiazol-2-yl)-2-cyanoethenyl]-3-[(2-hydroxy-1H-indol-3-yl)imino] thiourea] |
